For orientation: TGI means the concentration giving total growth inhibition. A lower TGI goes with more potent growth arrest.

Among the test systems are EKVX NSCLC; HOP-92 NSCLC; RPMI-8226 leukemia; HCT-116 colon; SR leukemia; MDA-MB-231 breast; SK-MEL-28 melanoma; K-562 leukemia; UACC-257 melanoma; A498 renal; MOLT-4 leukemia; KM12 colon; HL-60(TB) leukemia; PC-3 prostate; SW-620 colon; CAKI-1 renal; TK-10 renal; CCRF-CEM leukemia; HCT-15 colon.
Common to all, as to assay: DTP human tumour cell line panel, 48 h

The structures appear in SMILES notation.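 Following 48 hours of exposure in 96-well plates, responses at five concentrations were used to interpolate endpoints linearly. TGI marks complete inhibition of growth.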 *1 amine or outer side, *2 acyl side, *3 side chain or, on linkers, in order; H or OH if unused. Where a SMILES comes first, the peptide text is derived from it. Bridges are numbered along the chain shown (N, C = ends). [ ]: non-standard residue; d: D form. The star is where a group is joined. X38 = CC[C@H](C)[C@@H](N[*:1])[C@@H](O)CC(=O)[*:2]; NMeY = CN[C@@H](Cc1ccc(O)cc1)C(=O)O; dNMeL = CN[C@H](CC(C)C)C(=O)O; Hiv = CC(C)[C@H](O)C(=O)O; Pyruvoyl = CC(=O)C(=O)* A value given as a limit tells only on which side of the number the result lay.

For the compound `Fc1c(F)c(C(F)(F)F)c(F)c(F)c1N/N=C\c1c[nH]c2ccccc12`, the TGI was determined as 11.9 µM with EKVX NSCLC; 16.5 µM with HOP-92 NSCLC; 10.2 µM in the test with RPMI-8226 leukemia; 14.5 µM in the test with HCT-116 colon; 9.19 µM in the test on SR leukemia; 12.7 µM in the test with MDA-MB-231 breast. Besides, the TGI in the test with SK-MEL-28 melanoma stood at 20 µM; in the test on K-562 leukemia, 10.5 µM; in the test on UACC-257 melanoma, 14.3 µM; in the test on A498 renal it was 15 µM; in the test with MOLT-4 leukemia, 10.3 µM; with KM12 colon, 4.06 µM. Moreover, the total growth inhibition concentration (TGI) with HL-60(TB) leukemia came out at 9.25 µM; with PC-3 prostate, 8.01 µM; in the test with SW-620 colon, 12.5 µM; in the test with CAKI-1 renal, 8.14 µM; with TK-10 renal it was 15.6 µM; in the test on CCRF-CEM leukemia, 4.73 µM. Besides, in the test with HCT-15 colon, the TGI came to 12.8 µM.
Take `O=C1c2cc3c(cc2CC12Cc1cc4c(cc1C2=O)CCCC4)CCCC3`: the TGI in the test with EKVX NSCLC is above 100 µM; with HOP-92 NSCLC, 50.6 µM; in the test on RPMI-8226 leukemia it was above 100 µM; in the test with HCT-116 colon, above 100 µM; in the test on SR leukemia, above 100 µM; in the test on MDA-MB-231 breast it was 77.1 µM. Also, the TGI in the test on SK-MEL-28 melanoma was above 100 µM; with K-562 leukemia, above 100 µM; with UACC-257 melanoma, 82.1 µM; in the test on A498 renal, above 100 µM; in the test with MOLT-4 leukemia, above 100 µM; in the test on KM12 colon it was above 100 µM. For the same compound, the TGI is above 100 µM in the test with HL-60(TB) leukemia; above 100 µM with PC-3 prostate; above 100 µM in the test with SW-620 colon; 75.8 µM in the test on TK-10 renal; above 100 µM in the test on CCRF-CEM leukemia; above 100 µM in the test with HCT-15 colon.
As to `CCOC(=O)c1cc(Sc2ccc(N)c(C(=O)OCC)c2)ccc1N`, the TGI with EKVX NSCLC, in the test with HOP-92 NSCLC, with RPMI-8226 leukemia, in the test on HCT-116 colon, in the test with SR leukemia and in the test with MDA-MB-231 breast was above 100 µM throughout. The TGI in the test with SK-MEL-28 melanoma was above 100 µM; in the test on K-562 leukemia, above 100 µM; with UACC-257 melanoma it was above 100 µM; in the test with A498 renal it was 72.1 µM; in the test with MOLT-4 leukemia, above 100 µM; in the test on KM12 colon it was above 100 µM. In addition, the TGI in the test on HL-60(TB) leukemia, in the test with PC-3 prostate, in the test with SW-620 colon, with CAKI-1 renal, in the test with CCRF-CEM leukemia and in the test with HCT-15 colon was above 100 µM throughout.
For the compound `NC(=O)c1cc2ccccc2oc1=Nc1ccccc1`, the TGI in the test on EKVX NSCLC, with HOP-92 NSCLC, with RPMI-8226 leukemia, in the test on HCT-116 colon, with SR leukemia and in the test with MDA-MB-231 breast was above 100 µM in each case. In addition, the TGI with SK-MEL-28 melanoma, with K-562 leukemia, in the test on UACC-257 melanoma, with A498 renal, with MOLT-4 leukemia and in the test on KM12 colon was above 100 µM throughout. Also, the TGI in the test with HL-60(TB) leukemia, with PC-3 prostate, in the test on SW-620 colon, with CAKI-1 renal, with CCRF-CEM leukemia and in the test with HCT-15 colon was above 100 µM throughout.
`CCCCc1ccc(Nc2nc(Cl)c3c(ncn3COCCOC(C)=O)n2)cc1`: the total growth inhibition concentration (TGI) in the test with EKVX NSCLC was 37.1 µM; in the test on HOP-92 NSCLC, 43.6 µM; in the test with RPMI-8226 leukemia, above 100 µM; in the test with HCT-116 colon, 31.3 µM; with SR leukemia, 47.3 µM; with MDA-MB-231 breast, 33.4 µM. In addition, the TGI in the test with K-562 leukemia is 51.8 µM; in the test with UACC-257 melanoma, 31.4 µM; in the test on A498 renal, 38.8 µM; in the test on MOLT-4 leukemia, 42.5 µM; in the test on KM12 colon it was 37.5 µM; in the test with HL-60(TB) leukemia it was 49.9 µM. Moreover, the TGI with PC-3 prostate worked out at 37.4 µM; in the test with SW-620 colon, 41.4 µM; with CAKI-1 renal it was 60.1 µM; with TK-10 renal, 41.8 µM; with CCRF-CEM leukemia, 60.7 µM; in the test with HCT-15 colon, 30.7 µM.
Consider `CC[C@H](C)[C@H]1NC(=O)[C@@H](NC(=O)[C@@H](CC(C)C)N(C)C(=O)[C@@H]2CCCN2C(=O)C(C)=O)[C@@H](C)OC(=O)[C@H](Cc2ccc(OC)cc2)N(C)C(=O)[C@@H]2CCCN2C(=O)[C@H](CC(C)C)NC(=O)[C@H](C(C)C)OC(=O)C[C@@H]1O` (Pyruvoyl-P[dNMeL]T[X38][Hiv]LP[NMeY](Me); ester 3-C), for which the concentration for total growth inhibition (TGI) in the test on EKVX NSCLC came to 0.0103 µM; with HOP-92 NSCLC, 0.374 µM; in the test on RPMI-8226 leukemia it was 0.0465 µM; in the test on HCT-116 colon, 0.12 µM; in the test on SR leukemia, 0.607 µM; with MDA-MB-231 breast it was 0.112 µM. In addition, the TGI with SK-MEL-28 melanoma was found to be 0.543 µM; in the test with K-562 leukemia it was 0.104 µM; in the test on UACC-257 melanoma it was 0.0655 µM; with A498 renal it was 0.0904 µM; in the test on MOLT-4 leukemia it was 0.0373 µM; with KM12 colon, 0.151 µM. In addition, the TGI amounted to 0.187 µM in the test on HL-60(TB) leukemia; 0.261 µM in the test with PC-3 prostate; 1.22 µM in the test on CAKI-1 renal; 0.0643 µM in the test on TK-10 renal; 3.29 µM in the test on HCT-15 colon.
Take `COc1ccc(/C=C2\OC(=O)C(Cl)=C2c2ccc(OC)cc2)cc1`: the TGI is above 100 µM with EKVX NSCLC; 70.1 µM in the test on HOP-92 NSCLC; above 100 µM with RPMI-8226 leukemia; above 100 µM in the test with SR leukemia; above 100 µM in the test with MDA-MB-231 breast; above 100 µM with SK-MEL-28 melanoma. Also, the TGI in the test with K-562 leukemia, with UACC-257 melanoma, in the test with A498 renal, with MOLT-4 leukemia, with KM12 colon and with HL-60(TB) leukemia was above 100 µM throughout. Also, the TGI in the test with PC-3 prostate, in the test on SW-620 colon, in the test with CAKI-1 renal, with TK-10 renal, in the test on CCRF-CEM leukemia and in the test on HCT-15 colon was above 100 µM each time.
On to `CCOC(=O)/C(O)=C(/C=N\C(=S)Nc1ccccc1Cl)C(=O)OCC`, for which the TGI in the test with EKVX NSCLC is above 100 µM; in the test with HOP-92 NSCLC, 90.9 µM; in the test on RPMI-8226 leukemia, above 100 µM; in the test on HCT-116 colon, above 100 µM; in the test with SR leukemia, above 100 µM; in the test on MDA-MB-231 breast, above 100 µM. Further, the TGI in the test with SK-MEL-28 melanoma, with K-562 leukemia, in the test on UACC-257 melanoma, in the test on A498 renal, with MOLT-4 leukemia and in the test on KM12 colon was above 100 µM throughout. Besides, the TGI with HL-60(TB) leukemia, with PC-3 prostate, in the test with SW-620 colon, in the test on CAKI-1 renal, with CCRF-CEM leukemia and in the test on HCT-15 colon was above 100 µM each time.

The values above are taken from PubChem BioAssay (NCI).
